Test system: HeLa cells
Experiment: Measurement of the cell cycle inhibition in HeLa cells
Assay type: cell-based
Details: HeLa B cells, 20 h incubation with compound; FACS ratio G0/G1 to G2/M vs DMSO; concentration at which 50% of cells are in cell cycle arrest
Outline: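 HeLa B cells exposed 20 h to compounds (1×10^−9 to 1×10^−6 M final), then lysed in RNase/propidium iodide buffer and analysed by FACS. G0/G1 to G2/M ratio compared with DMSO controls; IC50 is concentration giving 50% of cells in cell cycle arrest.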

Row | IC50 | SMILES
1 | 39 nM | CCCNc1nc(-n2cccn2)nc(Cl)c1-c1ccc(C)cc1F [Example 103]
2 | 20 nM | COc1cc(F)c(-c2c(Cl)nc(-c3ccccn3)nc2N[C@@H](C)C(C)C)c(F)c1 [Example 65]
3 | 18 nM | CC1CCCN(c2nc(-n3cncn3)nc(Cl)c2-c2c(F)cc(F)cc2F)C1 (stereo not drawn) [Example 44]
4 | 25 nM | CC1CCN(c2nc(-n3cnc(N)n3)nc(Cl)c2-c2c(F)cc(F)cc2F)CC1 [Example 94]
5 | 21 nM | COc1cc(F)c(-c2c(Cl)nc(-c3ccccn3)nc2N2CCC(C)CC2)c(F)c1 [Example 61]
6 | 30 nM | COc1ccc(-c2c(Cl)nc(C(N)=NO)nc2N[C@@H](C)C(C)C)c(Cl)c1 [Example 185]
7 | 37 nM | CC(C)Nc1nc(-c2ccccn2)nc(Cl)c1-c1c(F)cccc1F [Example 83]
8 | 29 nM | CON=C(N)c1nc(Cl)c(-c2ccc([N+](=O)[O-])cc2Cl)c(N[C@@H](C)C(C)C)n1 [Example 219]
9 | 6 nM | COc1cc(F)c(-c2c(Cl)nc(C(N)=NO)nc2N[C@@H](C)C(F)(F)F)c(F)c1 [Example 181]
10 | 30 nM | C[C@H](Nc1nc(-n2nccn2)nc(Br)c1-c1c(F)cc(F)cc1F)C(F)(F)F [Example 165]
11 | 6.9 nM | C[C@H](Nc1nc(-c2ccccn2)nc(Cl)c1-c1c(F)cc(F)cc1F)C(F)(F)F [Example 12]
12 | 27 nM | CC(C)C(C)Nc1nc(-c2ccccn2)nc(Cl)c1-c1c(F)cccc1F (stereo not drawn) [Example 84]
13 | 23 nM | CC(C)[C@H](C)Nc1nc(-n2cccn2)nc(Cl)c1-c1c(F)cc(F)cc1F [Example 138]
14 | 50 nM | Cc1cnn(-c2nc(Cl)c(-c3c(F)cc(F)cc3F)c(NC(C)C)n2)c1 [Example 24]
15 | 39 nM | C[C@H](Nc1nc(-n2cc(C#N)c(N)n2)nc(Cl)c1-c1c(F)cccc1Cl)C(F)(F)F [Example 187]
16 | 20 nM | COc1cc(F)c(-c2c(Cl)nc(-n3cncn3)nc2N2CCC(C)CC2)c(F)c1 [Example 68]
17 | 45 nM | CCC(C)Nc1nc(-n2cccn2)nc(Cl)c1-c1ccc(F)cc1F (stereo not drawn) [Example 105]
18 | 46 nM | CC(C)Nc1nc(-n2ccc(C(F)(F)F)n2)nc(Cl)c1-c1c(F)cc(F)cc1F [Example 16]
19 | 41 nM | C=CCCN(C)c1nc(-n2cc(C)cn2)nc(Cl)c1-c1ccc(F)cc1Cl [Example 133]
20 | 25 nM | CC(C)Nc1nc(C(N)=NO)nc(Cl)c1-c1c(F)cc(F)cc1F [Example 144]
21 | 56 nM | CC1CCCN1c1nc(C(N)=NO)nc(Cl)c1-c1ccc(F)cc1Cl (stereo not drawn) [Example 208]
22 | 20 nM | Cc1csc(-c2nc(Cl)c(-c3c(F)cc(F)cc3F)c(N[C@@H](C)C(F)(F)F)n2)n1 [Example 178]
23 | 14 nM | C[C@H](Nc1nc(-c2nccs2)nc(Cl)c1-c1c(F)cc(F)cc1F)C(F)(F)F [Example 129]
24 | 46 nM | Cc1nc(-c2nc(Cl)c(-c3c(F)cc(F)cc3F)c(NC3CCCC3)n2)cs1 [Example 72]
25 | 19 nM | CC1CCCN(c2nc(-n3cccn3)nc(Cl)c2-c2c(F)cc(F)cc2F)C1 (stereo not drawn) [Example 43]

Row | IC50 | SMILES
26 | 41 nM | C[C@H](Nc1nc(C(N)=O)nc(Cl)c1-c1c(F)cccc1F)C(F)(F)F [Example 180]
27 | 22 nM | Fc1cc(F)c(-c2c(Cl)nc(-n3cncn3)nc2N2CCCCC2)c(F)c1 [Example 52]
28 | 25 nM | CCC(C)Nc1nc(-n2cc(I)cn2)nc(Cl)c1-c1c(C)cccc1F (stereo not drawn) [Example 120]
29 | 25 nM | CCC(C)Nc1nc(-n2cccn2)nc(Cl)c1-c1c(C)cccc1F (stereo not drawn) [Example 109]
30 | 17 nM | CC1CCN(c2nc(-n3ccnn3)nc(Cl)c2-c2c(F)cc(F)cc2F)CC1 [Example 29]
31 | 21 nM | CC(Nc1nc(-c2cccnn2)nc(Cl)c1-c1c(F)cc(F)cc1F)C(F)(F)F (stereo not drawn) [Example 78]
32 | 20 nM | C=CCN(C)c1nc(-n2ccnn2)nc(Cl)c1-c1c(F)cc(F)cc1F [Example 206]
33 | 41 nM | C[C@H](Nc1nc(C(N)=S)nc(Cl)c1-c1c(F)cccc1Cl)C(F)(F)F [Example 169]
34 | 41 nM | CON=C(N)c1nc(Cl)c(-c2c(F)cc(F)cc2F)c(N[C@@H](C)C(C)C)n1 [Example 147]
35 | 3.5 nM | C[C@H](Nc1nc(-c2cnccn2)nc(Cl)c1-c1c(F)cc(F)cc1F)C(F)(F)F [Example 27]
36 | 43 nM | Cc1ccnc(-c2nc(Cl)c(-c3c(F)cc(F)cc3F)c(NC(C)C)n2)c1 [Example 15]
37 | 11 nM | Fc1cc(F)c(-c2c(Cl)nc(-n3ccnn3)nc2N2CCCCC2)c(F)c1 [Example 56]
38 | 34 nM | CC1CCN(c2nc(-c3ccccn3)nc(Cl)c2-c2c(F)cccc2F)CC1 [Example 81]
39 | 1.8 nM | CON=C(N)c1nc(Cl)c(-c2c(F)cc(F)cc2F)c(N[C@H](C)C(F)(F)F)n1 [Example 130]
40 | 32 nM | CC(C)Nc1nc(-n2ccc(C(C)C)n2)nc(Cl)c1-c1c(F)cc(F)cc1F [Example 22]
41 | 23 nM | COc1ccc(-c2c(Cl)nc(C(N)=O)nc2N[C@@H](C)C(F)(F)F)c(Cl)c1 [Example 217]
42 | 8.3 nM | C[C@H](Nc1nc(-n2cnc(SCc3ccccc3)n2)nc(Cl)c1-c1c(F)cc(F)cc1F)C(F)(F)F [Example 151]
43 | 38 nM | CON=C(N)c1nc(Cl)c(-c2cc(F)ccc2Cl)c(N[C@@H](C)C(C)C)n1 [Example 202]
44 | 46 nM | CC1CCCN1c1nc(-n2cncn2)nc(Cl)c1-c1c(F)cccc1Cl (stereo not drawn) [Example 98]
45 | 26 nM | Cc1cnn(-c2nc(Cl)c(-c3c(F)cc(F)cc3F)c(N3CCCCC3)n2)c1 [Example 55]
46 | 5.8 nM | CC(Nc1nc(-n2ccc(N)n2)nc(Cl)c1-c1c(F)cc(F)cc1F)C(F)(F)F (stereo not drawn) [Example 57]
47 | 38 nM | Fc1cc(F)c(-c2c(Cl)nc(-n3cccn3)nc2N2CC=CCC2)c(F)c1 [Example 41]
48 | 46 nM | CC1CCCCN1c1nc(-n2cncn2)nc(Cl)c1-c1ccc(F)cc1F (stereo not drawn) [Example 141]
49 | 47 nM | COc1cc(F)c(-c2c(Cl)nc(C(N)=S)nc2N[C@@H](C)C(F)(F)F)c(F)c1 [Example 203]
50 | 21 nM | CC1CCN(c2nc(-c3cccnn3)nc(Cl)c2-c2c(F)cc(F)cc2F)CC1 [Example 79]

Row | IC50 | SMILES
51 | 16 nM | Cc1ccc(-c2c(Cl)nc(-n3cccn3)nc2NCC(F)(F)F)c(F)c1 [Example 108]
52 | 27 nM | Cc1nc(-n2ccnn2)nc(N2CCC(C)CC2)c1-c1c(F)cc(F)cc1F [Example 90]
53 | 53 nM | COc1ccc(-c2c(Cl)nc(C(N)=O)nc2N[C@@H](C)C(C)C)c(Cl)c1 [Example 183]
54 | 22 nM | CCC(C)Nc1nc(-c2ccccn2)nc(Cl)c1-c1c(F)cc(OC)cc1F (stereo not drawn) [Example 63]
55 | 44 nM | CCON=C(N)c1nc(Cl)c(-c2c(F)cc(F)cc2F)c(N[C@H](C)C(F)(F)F)n1 [Example 158]
56 | 13 nM | COc1cc(F)c(-c2c(Cl)nc(-n3cccn3)nc2N2CCC(C)CC2)c(F)c1 [Example 67]
57 | 16 nM | CC(C)Nc1nc(-n2cc(Br)cn2)nc(Cl)c1-c1c(F)cccc1Cl [Example 19]
58 | 31 nM | CCCNc1nc(-n2nc(C)cc2C(=O)OCC)nc(Cl)c1-c1ccc(C)cc1F [Example 160]
59 | 30 nM | CC(C)[C@H](C)Nc1nc(C(N)=NO)nc(Cl)c1-c1cc(F)ccc1Cl [Example 201]
60 | 36 nM | C[C@H](Nc1nc(-n2cc(Cl)cn2)nc(Cl)c1-c1c(F)cc(F)cc1F)C(F)(F)F [Example 35]
61 | 39 nM | C=CCN(C)c1nc(-n2cccn2)nc(Cl)c1-c1c(F)cc(F)cc1F [Example 142]
62 | 18 nM | CC1CCCN(c2nc(-n3ccnn3)nc(Cl)c2-c2c(F)cc(F)cc2F)C1 (stereo not drawn) [Example 42]
63 | 25 nM | C[C@H](Nc1nc(-n2cc(I)cn2)nc(Cl)c1-c1c(F)cc(F)cc1F)C(F)(F)F [Example 34]
64 | 13 nM | C[C@H](Nc1nc(-n2cncn2)nc(Cl)c1-c1c(F)cc(F)cc1F)C(F)(F)F [Example 8]
65 | 19 nM | Cc1nc(-n2ccnn2)nc(N[C@@H](C)C(F)(F)F)c1-c1c(F)cc(F)cc1F [Example 157]
66 | 18 nM | C=CCN(CC=C)c1nc(-n2ccc(N)n2)nc(Cl)c1-c1ccc(F)cc1Cl [Example 135]
67 | 50 nM | Cc1ccc(-c2c(Cl)nc(-n3cc(Cl)cn3)nc2NCC(F)(F)F)c(F)c1 [Example 150]
68 | 48 nM | Cc1cc(C)n(-c2nc(Cl)c(-c3c(F)cc(F)cc3F)c(N3CCC(C)CC3)n2)n1 [Example 30]
69 | 33 nM | CC(C)Nc1nc(-n2cccn2)nc(Cl)c1-c1c(F)cc(F)cc1F [Example 101]
70 | 23 nM | Cc1nc(C)n(-c2nc(Cl)c(-c3c(F)cc(F)cc3F)c(N3CCCCC3)n2)n1 [Example 54]
71 | 29 nM | CC1CCCCN1c1nc(-n2cccn2)nc(Cl)c1-c1c(F)cc(F)cc1F (stereo not drawn) [Example 96]
72 | 35 nM | Cc1nc(C)n(-c2nc(Cl)c(-c3c(F)cc(F)cc3F)c(N3CCCC3C)n2)n1 (stereo not drawn) [Example 77]
73 | 38 nM | COCC(C)Nc1nc(-n2ccc(N)n2)nc(Cl)c1-c1ccc(C)cc1F (stereo not drawn) [Example 128]
74 | 39 nM | Cc1ccc(-c2c(Cl)nc(-n3cccn3)nc2N2CCCC(C)C2)c(F)c1 (stereo not drawn) [Example 99]
75 | 38 nM | CC1CCCCN1c1nc(-n2ccnn2)nc(Cl)c1-c1c(F)cccc1F (stereo not drawn) [Example 126]

From patent US20080146593A1, “Substituted 5-Phenyl Pyrimidines I In Therapy” (Basf Aktiengesellschaft, priority 2005, published 2008)
